{"source": "patent US20100291089A1", "about": "“LIGAND OF REGULATING IMMUNE RESPONSE, AND USE THEREOF IN TREATING AN IMMUNE RESPONSE-RELATED DISEASE” (POSTECH ACADEMY-INDUSTRY FOUNDATION, priority 2005, published 2010)", "assay_type_in_all_cases": "cell-based", "key": {"human neutrophils [1]": {"tested_on": "human neutrophils", "experiment": "Neutrophil chemotaxis assay (multiwell chamber, checkerboard analysis)", "conditions": "1 μM WRW4, 1 μM PACAP27", "experimental": "Chemotaxis assays were performed using multiwell chambers (Neuroprobe Inc., Gaithersburg, Md.) (Bae, Y. S., H. Bae, Y. Kim, T. G. Lee, P. G. Suh, and S. H. Ryu. 2001. Blood 97:2854-2862). Prepared human neutrophils were suspended in RPMI 1640 medium at a 1×10^6 cells/ml, and 25 μl of this suspension was placed into the upper well of a chamber separated from the lower chamber, which was filled with testing solutions, by a […] filter (not coated with polyvinylpyrrolidone). After incubating for 2 hours at 37° C., non-migrated cells were removed by scraping, and cells that had migrated across the filter were dehydrated, fixed, and stained with hematoxylin (Sigma, St. Louis, Mo.). Stained cells in five randomly chosen high power fields (HPF) (400×) were then counted.\nNeutrophil migration was analyzed for 2 hours across a polycarbonate membrane. Various concentrations of PACAP27 (SEQ ID NO:1) as shown in the following Table 1 were placed in the upper and lower compartments of the chambers. Data are presented as means±SE for migrated neutrophils cells per field counted in triplicate of two independent experiments."}, "human neutrophils [2]": {"tested_on": "human neutrophils", "experiment": "Intracellular calcium mobilization (fura-2) in human neutrophils", "experimental": "(§1) Neutrophils were stimulated with 1 μM of PACAP27 (SEQ ID NO:1), PACAP38 (SEQ ID NO:2), or VIP (SEQ ID NO:3), and calcium concentrations were measured for 10 min. In order to measure EKR phosphorylation, each peptide hormones was used with 1 μM concentrations for 5 min. For cAMP measurement, each peptide hormones was used with 1 μM concentrations for 10 min.\nIntracellular calcium concentrations ([Ca^2+]i) were determined using Grynkiewicz's method with fura-2/AM, as described in “Grynkiewicz, G., M. Poenie, and R. Y. Tsien. 1985. […] J. Biol. Chem. 260:3440-3450”. Briefly, the cells prepared in Example 1.2 were incubated with 3 µM fura-2/AM at 37° C. for 50 minutes in fresh serum free RPMI 1640 medium with continuous stirring. The incubated cells (2×10^6) were aliquoted for each assay in Ca^2+-free Locke's solution (154 mM NaCl, 5.6 mM KCl, 1.2 mM MgCl2, 5 mM HEPES (pH 7.3), 10 mM glucose, and 0.2 mM EGTA). Fluorescence changes at 340 and 380 nm using a common emission wavelength of 500 nm were measured, and fluorescence ratios were converted to [Ca2+]i, as described in above Grynkiewicz, G. et al."}, "human neutrophils [3]": {"tested_on": "human neutrophils", "experiment": "Western blot for ERK phosphorylation in human neutrophils", "conditions": "pretreating with 1 μM WRW4", "experimental": "as §1\nERK phosphorylation levels were measured by Western blotting, as described in above Bae, Y. S. et al. Cells (2×10^6/assay) were stimulated with the indicated concentration of agonist for 5 minutes, then washed with serum-free RPMI 1640 medium and lysed in lysis buffer {20 mM HEPES (pH 7.2), 10% glycerol, 150 mM NaCl, 1% Triton X-100, 1 mM PMSF, […], 50 mM NaF, and 1 mM Na3VO4}. Detergent-insoluble materials were pelleted by centrifugation (12,000×g, 15 minutes, 4° C.), and the soluble supernatant fraction was removed and either stored at −80° C. or used immediately. Laemmli sample buffer was added to these fractions and boiled (5 minutes). Proteins were separated by SDS-PAGE and transferred to nitrocellulose membranes (Schleicher and Schuell, BA85). Blocking was performed using TBS buffer (10 mM Tris/HCl, pH 7.5, 150 mM NaCl, and 0.05% Tween-20) containing 5% nonfat dry milk. Membranes were probed with a phospho-ERK specific primary antibody or ERK2 antibody for 3 hours at room temperature. […]"}, "human neutrophils [4]": {"tested_on": "human neutrophils", "experiment": "Intracellular cyclic AMP measurement in neutrophils", "conditions": "1 μM WRW4, 10 μM PACAP27 for 10 minutes", "experimental": "Neutrophils were stimulated with 1 μM of PACAP27 (SEQ ID NO:1), PACAP38 (SEQ ID NO:2), or VIP (SEQ ID NO:3), and calcium concentrations were measured for 10 min. In order to measure EKR phosphorylation, each peptide hormones was used with 1 μM concentrations for 5 min. […]\nBriefly, neutrophils were isolated and resuspended at 5×10^6 cells/ml in Hank's balanced salt solution (HBSS) for 5-10 minutes in a shaking incubator. The HBSS was then replaced with […] HBSS containing 500 µM isobutylmethylxanthine (IBMX; a cAMP phosphodiesterase inhibitor) for 5 minutes, and then cells were stimulated for 10 minutes. The reaction was terminated by adding 1 ml of ethanol, and cAMP levels were determined by using cAMP measuring kit (Neurunex, Pohang, Korea) according to the manufacturer's instructions."}, "human monocytes": {"tested_on": "human monocytes", "experiment": "Intracellular calcium signaling in human monocytes", "conditions": "1 μM WRW4", "from_the_text": "1.3. Preparation of Neutrophils and Monocytes Peripheral blood was collected from healthy donors (male, 20˜30 years old, venous blood collection). Human neutrophils were isolated by dextran sedimentation followed by hypotonic erythrocyte lysis and lymphocyte separation medium gradient, as described in “Bae, Y. S., H. Bae, Y. Kim, T. G. Lee, P. G. Suh, and S. H. Ryu. 2001. Identification of novel chemoattractant peptides for human leukocytes. Blood 97:2854-2862”. Isolated human neutrophils were used promptly. Peripheral blood mononuclear cells (PBMCs) were separated on a Histopaque-1077 gradient (Bae, Y. S., H. Bae, Y. Kim, T. G. Lee, P. G. Suh, and S. H. Ryu. 2001. Identification of novel chemoattractant peptides for human leukocytes. Blood 97:2854-2862). […]\nIntracellular calcium concentrations ([Ca^2+]i) were determined using Grynkiewicz's method with fura-2/AM, as described in “Grynkiewicz, G., M. Poenie, and R. Y. Tsien. […] Fluorescence changes at 340 and 380 nm using a common emission wavelength of 500 nm were measured, and fluorescence ratios were converted to [Ca2+]i, as described in above Grynkiewicz, G. et al."}, "human neutrophils [5]": {"tested_on": "human neutrophils", "experiment": "FACS analysis of surface CD11b expression on neutrophils", "conditions": "1 μM WRW4, 10 μM PACAP27", "experimental": "Purified neutrophils were incubated with indicated concentration of PACAP27 (SEQ ID NO:1) for 1 hour. Cells (2×10^5/assay) were washed with FACS buffer (PBS containing 1% BSA and 0.1% sodium azide), incubated with human AB type serum for 10 minutes on ice, and stained with PE-labeled human CD11b antibody (BD PharMingen, San Diego, Calif.). They were then analyzed using a FACSCalibur system (BD Biosciences, San Jose, Calif.), as described in “Harfi, I., S. D'Hondt, F. Corazza, and E. Sariban. 2004. J. Immunol. 173:4154-4163”."}}, "note": "Where no end group is shown, it is not given here."}
{"substance": "WRWWWW [WRW4]", "values": [{"measurement": "inhibition of PACAP27-induced neutrophil chemotaxis", "setting": "human neutrophils [1]", "result": "completely inhibited"}, {"measurement": "effect on PACAP27 priming of fMLP-induced calcium signaling", "setting": "human neutrophils [2]; 1 M WRW4", "result": "abolished"}, {"measurement": "effect on fMLP-induced calcium signaling", "setting": "human neutrophils [2]; 1 M WRW4, 10 nM fMLP", "result": "not affected"}, {"measurement": "concentration that completely inhibits PACAP27-induced neutrophil activation", "setting": "human neutrophils [2]; human neutrophils", "result": "≥ 100", "unit": "nM"}, {"measurement": "inhibition of PACAP27-induced [Ca2+]i up-regulation", "setting": "human neutrophils [2]; human neutrophils, pretreatment 30 seconds, 1 μM PACAP27", "result": "successfully inhibited"}, {"measurement": "inhibition of PACAP27-induced ERK-phosphorylation", "setting": "human neutrophils [3]", "result": "completely inhibited"}, {"measurement": "inhibition of PACAP27-induced cAMP elevation", "setting": "human neutrophils [4]", "result": "failed to inhibit"}, {"measurement": "inhibition of PACAP27-induced calcium signaling in human monocytes", "setting": "human monocytes", "result": "successfully inhibited"}, {"measurement": "inhibition of PACAP27-induced CD11b up-regulation", "setting": "human neutrophils [5]", "result": "inhibited completely"}]}
